Test results as given in the CheMixHub viscosity set.

Assay: xn = mol fraction of the nth substance listed

NC(N)=O + O
Conditions	viscosity [mPa·s]
293.15 K, 100 kPa, x1 = 0.00045	1.018
293.15 K, 100 kPa, x1 = 0.0009	1.027
293.15 K, 100 kPa, x1 = 0.0013	1.041
293.15 K, 101 kPa, x1 = 0.0003382	1.002
293.15 K, 101 kPa, x1 = 0.0005695	1.003
293.15 K, 101 kPa, x1 = 0.0009893	1.003
293.15 K, 101 kPa, x1 = 0.001265	1.004
293.15 K, 101 kPa, x1 = 0.00161	1.004
293.15 K, 101 kPa, x1 = 0.002015	1.005
293.15 K, 101 kPa, x1 = 0.002546	1.006
293.15 K, 101 kPa, x1 = 0.002806	1.006
293.15 K, 101 kPa, x1 = 0.0486	0.872
293.15 K, 101 kPa, x1 = 0.0994	0.991
293.15 K, 101 kPa, x1 = 0.1318	1.087
294.75 K, 101 kPa, x1 = 0.0219	0.9356
294.75 K, 101 kPa, x1 = 0.04201	1.072
294.75 K, 101 kPa, x1 = 0.05343	1.101
294.75 K, 101 kPa, x1 = 0.0565	1.157
298.15 K, 100 kPa, x1 = 0.00045	0.911
298.15 K, 100 kPa, x1 = 0.0009	0.927
298.15 K, 100 kPa, x1 = 0.0013	0.94
298.15 K, 101 kPa, x1 = 0.0003802	0.8909
298.15 K, 101 kPa, x1 = 0.0009168	0.8918
298.15 K, 101 kPa, x1 = 0.001355	0.8925
298.15 K, 101 kPa, x1 = 0.00169	0.893
298.15 K, 101 kPa, x1 = 0.001993	0.8935
298.15 K, 101 kPa, x1 = 0.00247	0.8943
298.15 K, 101 kPa, x1 = 0.00308	0.895
298.15 K, 101 kPa, x1 = 0.003109	0.8953
298.15 K, 101 kPa, x1 = 0.00368	0.8962
298.15 K, 101 kPa, x1 = 0.0259	0.939
298.15 K, 101 kPa, x1 = 0.0389	0.969
298.15 K, 101 kPa, x1 = 0.05204	1.035
298.15 K, 101 kPa, x1 = 0.08275	1.088
298.15 K, 101 kPa, x1 = 0.1302	1.252
298.15 K, 101 kPa, x1 = 0.156	1.348
298.15 K, 101 kPa, x1 = 0.2047	1.561
303.15 K, 100 kPa, x1 = 0.00045	0.824
303.15 K, 100 kPa, x1 = 0.0009	0.839
303.15 K, 100 kPa, x1 = 0.0013	0.849
303.15 K, 101 kPa, x1 = 0.000464	0.798
303.15 K, 101 kPa, x1 = 0.001107	0.799
303.15 K, 101 kPa, x1 = 0.001607	0.7999
303.15 K, 101 kPa, x1 = 0.002024	0.8005
303.15 K, 101 kPa, x1 = 0.002271	0.8009
303.15 K, 101 kPa, x1 = 0.002742	0.8016
303.15 K, 101 kPa, x1 = 0.003158	0.8024
303.15 K, 101 kPa, x1 = 0.003416	0.8028
308.15 K, 100 kPa, x1 = 0.00045	0.744
308.15 K, 100 kPa, x1 = 0.0009	0.755
308.15 K, 100 kPa, x1 = 0.0013	0.77
308.15 K, 101 kPa, x1 = 0.0003775	0.7197
308.15 K, 101 kPa, x1 = 0.0006463	0.7201
308.15 K, 101 kPa, x1 = 0.001149	0.721
308.15 K, 101 kPa, x1 = 0.001425	0.7214
308.15 K, 101 kPa, x1 = 0.001907	0.7223
308.15 K, 101 kPa, x1 = 0.002218	0.7227
308.15 K, 101 kPa, x1 = 0.002872	0.7238
308.15 K, 101 kPa, x1 = 0.003309	0.7246
308.15 K, 101 kPa, x1 = 0.018	0.65
308.15 K, 101.33 kPa, x1 = 0.0177	0.7612
308.15 K, 101.33 kPa, x1 = 0.03479	0.7944
308.15 K, 101.33 kPa, x1 = 0.05127	0.8302
308.15 K, 101.33 kPa, x1 = 0.06723	0.8754
308.15 K, 101.33 kPa, x1 = 0.08263	0.916
308.15 K, 101.33 kPa, x1 = 0.09755	0.9544
308.15 K, 101.33 kPa, x1 = 0.112	1.02
308.15 K, 101.33 kPa, x1 = 0.126	1.049
308.15 K, 101.33 kPa, x1 = 0.1395	1.077
313.15 K, 100 kPa, x1 = 0.00045	0.678
313.15 K, 100 kPa, x1 = 0.0009	0.692
313.15 K, 100 kPa, x1 = 0.0013	0.712
313.15 K, 101.33 kPa, x1 = 0.0177	0.6912
313.15 K, 101.33 kPa, x1 = 0.03479	0.7169
313.15 K, 101.33 kPa, x1 = 0.05127	0.7568
313.15 K, 101.33 kPa, x1 = 0.06723	0.7895
313.15 K, 101.33 kPa, x1 = 0.08263	0.8365
313.15 K, 101.33 kPa, x1 = 0.09755	0.8702
313.15 K, 101.33 kPa, x1 = 0.112	0.914
313.15 K, 101.33 kPa, x1 = 0.126	0.9479
313.15 K, 101.33 kPa, x1 = 0.1395	0.9819
318.15 K, 101 kPa, x1 = 0.018	0.533
318.15 K, 101.33 kPa, x1 = 0.0177	0.6293
318.15 K, 101.33 kPa, x1 = 0.03479	0.6557
318.15 K, 101.33 kPa, x1 = 0.05127	0.6939
318.15 K, 101.33 kPa, x1 = 0.06723	0.7263
318.15 K, 101.33 kPa, x1 = 0.08263	0.7712
318.15 K, 101.33 kPa, x1 = 0.09755	0.7978
318.15 K, 101.33 kPa, x1 = 0.112	0.8423
318.15 K, 101.33 kPa, x1 = 0.126	0.8735
318.15 K, 101.33 kPa, x1 = 0.1395	0.9047
323.15 K, 101.33 kPa, x1 = 0.0177	0.5841
323.15 K, 101.33 kPa, x1 = 0.03479	0.6023
323.15 K, 101.33 kPa, x1 = 0.05127	0.6485
323.15 K, 101.33 kPa, x1 = 0.06723	0.6694
323.15 K, 101.33 kPa, x1 = 0.08263	0.7012
323.15 K, 101.33 kPa, x1 = 0.09755	0.7261
323.15 K, 101.33 kPa, x1 = 0.112	0.7788
323.15 K, 101.33 kPa, x1 = 0.126	0.803
323.15 K, 101.33 kPa, x1 = 0.1395	0.8273
